The target in experiment [1] is PHD2 enzyme (residues 181-417) (Homo sapiens (Human), UniProt Q9GZT9). The experiment is described as follows: Inhibition of PHD enzyme (LC/MS peptide hydroxylation assay). Type of experiment: biochemical. Particulars: PHD2 (residues 181-417) 5 nM, 60 min pre-incubation; -log(IC50), IC50 molar. Put shortly:
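PHD2 (5 nM final) preincubated with inhibitor 60 min at RT in 50 mM HEPES, 50 mM KCl, 0.5 mM TCEP, 2 uM FeCl2, 0.1 mg/ml BSA, pH 7.3. Reaction started with biotin-peptide (1 uM), 2-oxoglutarate (2 uM), ascorbate (1 mM), quenched at 60 min; hydroxylated product by LC/MS, reported as pIC50.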

The subject of experiment [2] is HIF1a protein in H9c2 rat cardiomyocytes. The experiment is described as follows: Cell-based HIF-alpha stabilization assay (inhibition of PHD in cells). As to conditions: Rattus norvegicus, H9c2, 24 h, 24 hrs compound incubation, HIF1a protein by ELISA, read-out: Inhibition of PHD in cells (pEC50) (converted). Put shortly:
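Rat H9c2 cardiomyocytes, cultured 24 h, were treated 24 h with an 11-point serial dilution of compound. HIF1a in whole-cell lysates was quantified by ELISA as % of the maximal desferrioxamine response. EC50 came from curve fitting; EC50pos is the concentration reaching 50% of the desferrioxamine maximum.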
A general note: ELISA stands for enzyme-linked immunosorbent assay.

The values that follow come from patent US10407409B2, “6-(5-hydroxy-1H-pyrazol-1-yl)nicotinamide inhibitors of PHD” (Takeda Pharmaceutical Company Limited, priority 2013, dated 2019).

PHD2 enzyme (residues 181-417), sequence (Q9GZT9 181-417): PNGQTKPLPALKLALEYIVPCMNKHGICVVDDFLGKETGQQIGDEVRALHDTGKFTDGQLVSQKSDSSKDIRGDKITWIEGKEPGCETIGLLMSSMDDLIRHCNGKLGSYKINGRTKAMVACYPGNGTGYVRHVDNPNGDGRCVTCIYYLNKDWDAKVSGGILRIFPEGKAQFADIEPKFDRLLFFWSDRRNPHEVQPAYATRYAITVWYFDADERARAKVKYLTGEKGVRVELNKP

On to `C[C@H](NC(=O)c1ccc(-n2ncc(-c3ccc(C#N)cc3)c2O)nc1)C(F)(F)F` [Example 171, (S)-6-(4-(4-cyanophenyl)-5-hydroxy-1H-pyrazol-1-yl)-N-(1,1,1-trifluoropropan-2-yl)nicotinamide], for which the “PHD Inhibition (pIC50)” value in experiment [1] was determined as 7.18. In addition, the EC50 in experiment [2] was 1.45 µM.
Turning to `N#Cc1ccc(-c2cnn(-c3ccc(C(=O)NC4CC(F)(F)C4)cn3)c2O)cc1` [Example 265, 6-(4-(4-cyanophenyl)-5-hydroxy-1H-pyrazol-1-yl)-N-(3,3-difluorocyclobutyl)nicotinamide], in experiment [1], the “PHD Inhibition (pIC50)” value is recorded as 6.77. The EC50 in experiment [2] was 6.61 µM.
As for `CCOc1cc(-c2cnn(-c3ccc(C(=O)NCCCOC)cn3)c2O)ccn1` [Example 218, 6-(4-(2-ethoxypyridin-4-yl)-5-hydroxy-1H-pyrazol-1-yl)-N-(3-methoxypropyl)nicotinamide], the “PHD Inhibition (pIC50)” value in experiment [1] is listed as 7.9. Further, the EC50 in experiment [2] is 4.68 µM.
For `Cc1cc(C#N)ccc1-c1cnn(-c2ccc(C(=O)N3CC[C@@H](N(C)C)C3)cn2)c1O` [Example 413, (R)-4-(1-(5-(3-(dimethylamino)pyrrolidine-1-carbonyl)pyridin-2-yl)-5-hydroxy-1H-pyrazol-4-yl)-3-methylbenzonitrile] the same measures were 8.10 and 2.09 µM.
For `COc1cc(-c2cnn(-c3ccc(C(=O)NCCOC(C)C)cn3)c2O)ccn1` [Example 7, 6-(5-hydroxy-4-(2-methoxypyridin-4-yl)-1H-pyrazol-1-yl)-N-(2-isopropoxyethyl)nicotinamide] the same measures were 7.03 and 1 µM.
`N#Cc1ccc(-c2cnn(-c3ccc(C(=O)NC4CC4)cn3)c2O)cc1` [Example 161, 6-(4-(4-cyanophenyl)-5-hydroxy-1H-pyrazol-1-yl)-N-cyclopropylnicotinamide]: the “PHD Inhibition (pIC50)” value in experiment [1] worked out at 7.18. In addition, the EC50 in experiment [2] was 0.447 µM.
As for `CN1CCC2(CCN(C(=O)c3ccc(-n4ncc(-c5ccc(C#N)cc5)c4O)nc3)C2)C1` (centres unmarked) [Example 350, 4-(5-hydroxy-1-(5-(7-methyl-2,7-diazaspiro[4.4]nonane-2-carbonyl)pyridin-2-yl)-1H-pyrazol-4-yl)benzonitrile], the “PHD Inhibition (pIC50)” value in experiment [1] was 7.26. For the same molecule, the EC50 in experiment [2] is 3.31 µM.
Regarding `COc1cc(-c2cnn(-c3ccc(C(=O)NCC4CCN(C)C4)cn3)c2O)ccn1` (centres unmarked) [Example 36, 6-(5-hydroxy-4-(2-methoxypyridin-4-yl)-1H-pyrazol-1-yl)-N-((1-methylpyrrolidin-3-yl)methyl)nicotinamide], in experiment [1], the “PHD Inhibition (pIC50)” value is 7.4. Besides, the EC50 in experiment [2] is 1.48 µM.
Consider `Cc1cc(C#N)ccc1-c1cnn(-c2ccc(C(=O)N(C)CCCN3CCCCC3)cn2)c1O` [Example 303, 6-(4-(4-cyano-2-methylphenyl)-5-hydroxy-1H-pyrazol-1-yl)-N-methyl-N-(3-(piperidin-1-yl)propyl)nicotinamide], for which the “PHD Inhibition (pIC50)” value in experiment [1] is recorded as 7.88. The EC50 in experiment [2] is 0.282 µM.
Take `COc1cc(-c2cnn(-c3ccc(C(=O)NCc4ccccc4)cn3)c2O)ccn1` [Example 2, N-benzyl-6-(5-hydroxy-4-(2-methoxypyridin-4-yl)-1H-pyrazol-1-yl)nicotinamide]: the “PHD Inhibition (pIC50)” value in experiment [1] was found to be 7.03. Moreover, the EC50 in experiment [2] is 1.26 µM.
For the molecule `Cc1cc(C#N)ccc1-c1cnn(-c2ccc(C(=O)N(C3CC3)C3CCN(C)CC3)cn2)c1O` [Example 420, 6-(4-(4-cyano-2-methylphenyl)-5-hydroxy-1H-pyrazol-1-yl)-N-cyclopropyl-N-(1-methylpiperidin-4-yl)nicotinamide], the “PHD Inhibition (pIC50)” value in experiment [1] is recorded as 7.87. For the same molecule, in experiment [2], the EC50 was 0.537 µM.
On to `N#Cc1ccc(-c2cnn(-c3ccc(C(=O)NCC(F)(F)F)cn3)c2O)cc1` [Example 77, 6-(4-(4-cyanophenyl)-5-hydroxy-1H-pyrazol-1-yl)-N-(2,2,2-trifluoroethyl)nicotinamide], for which the “PHD Inhibition (pIC50)” value in experiment [1] is 7.03. In experiment [2], the EC50 was 1.26 µM.
Consider `COC(C)(C)CNC(=O)c1ccc(-n2ncc(-c3ccc(C#N)cc3)c2O)nc1` [Example 55, 6-(4-(4-cyanophenyl)-5-hydroxy-1H-pyrazol-1-yl)-N-(2-methoxy-2-methylpropyl)nicotinamide], for which, in experiment [1], the “PHD Inhibition (pIC50)” value amounted to 7.2. In addition, the EC50 in experiment [2] is 1.86 µM.
Regarding `N#Cc1cnn(-c2cnn(-c3ccc(C(=O)NCC4CCOCC4)cn3)c2O)c1` [Example 158, 6-(4-cyano-5′-hydroxy-1′H-[1,4′-bipyrazol]-1′-yl)-N-((tetrahydro-2H-pyran-4-yl)methyl)nicotinamide], the “PHD Inhibition (pIC50)” value in experiment [1] came out at 6.71. Besides, the EC50 in experiment [2] is 9.55 µM.
For the molecule `COCC1(CNC(=O)c2ccc(-n3ncc(-c4ccc(C#N)cc4)c3O)nc2)CCCC1` [Example 147, 6-(4-(4-cyanophenyl)-5-hydroxy-1H-pyrazol-1-yl)-N-((1-(methoxymethyl)cyclopentyl)methyl)nicotinamide], in experiment [1], the “PHD Inhibition (pIC50)” value is 7.9. The EC50 in experiment [2] was 3.24 µM.
On to `CC[C@H](C)NC(=O)c1ccc(-n2ncc(-c3ccc(C#N)cc3)c2O)nc1` [Example 87, (S)—N-(sec-butyl)-6-(4-(4-cyanophenyl)-5-hydroxy-1H-pyrazol-1-yl)nicotinamide], for which the “PHD Inhibition (pIC50)” value in experiment [1] is 7.66. Also, the EC50 in experiment [2] is 0.603 µM.
As to `N#Cc1ccc(-c2cnn(-c3ccc(C(=O)NCc4ccccc4)cn3)c2O)c(Cl)c1` [Example 196, N-benzyl-6-(4-(2-chloro-4-cyanophenyl)-5-hydroxy-1H-pyrazol-1-yl)nicotinamide], the “PHD Inhibition (pIC50)” value in experiment [1] is listed as 6.84. Moreover, the EC50 in experiment [2] is 3.55 µM.
For `Cc1c(-c2cnn(-c3ccc(C(=O)N4CCN5CCC[C@@H]5C4)cn3)c2O)ccc(C#N)c1F` [Example 334, (R)-2-fluoro-4-(5-hydroxy-1-(5-(octahydropyrrolo[1,2-a]pyrazine-2-carbonyl)pyridin-2-yl)-1H-pyrazol-4-yl)-3-methylbenzonitrile] the same measures were 8.50 and 1.38 µM.
For `O=C(NCc1ccccc1)c1ccc(-n2ncc(-c3ccncc3)c2O)nc1` [Example 225, N-benzyl-6-(5-hydroxy-4-(pyridin-4-yl)-1H-pyrazol-1-yl)nicotinamide] the same measures were 7.56 and 2.34 µM.
`N#Cc1ccc(-c2cnn(-c3ccc(C(=O)NC4CCOCC4)cn3)c2O)cc1` [Example 81, 6-(4-(4-cyanophenyl)-5-hydroxy-1H-pyrazol-1-yl)-N-(tetrahydro-2H-pyran-4-yl)nicotinamide]: in experiment [1], the “PHD Inhibition (pIC50)” value was 7.2. Further, the EC50 in experiment [2] was 4.79 µM.
In the case of `COCCCNC(=O)c1ccc(-n2ncc(-c3cc(OC)c(C#N)cc3C)c2O)nc1` [Example 426, 6-(4-(4-cyano-5-methoxy-2-methylphenyl)-5-hydroxy-1H-pyrazol-1-yl)-N-(3-methoxypropyl)nicotinamide], the “PHD Inhibition (pIC50)” value in experiment [1] amounted to 8.18. Moreover, the EC50 in experiment [2] is 2.14 µM.
Turning to `Cc1cc(C#N)c(F)cc1-c1cnn(-c2ccc(C(=O)N3CCN(C)[C@@H](C)C3)cn2)c1O` [Example 400, (S)-4-(1-(5-(3,4-dimethylpiperazine-1-carbonyl)pyridin-2-yl)-5-hydroxy-1H-pyrazol-4-yl)-2-fluoro-5-methylbenzonitrile], the “PHD Inhibition (pIC50)” value in experiment [1] was determined as 8.50. Further, the EC50 in experiment [2] is 1.66 µM.
For the molecule `CCN1CCC(NC(=O)c2ccc(-n3ncc(-c4ccc(C#N)cc4C)c3O)nc2)CC1` [Example 98, 6-(4-(4-cyano-2-methylphenyl)-5-hydroxy-1H-pyrazol-1-yl)-N-(1-ethylpiperidin-4-yl)nicotinamide], the “PHD Inhibition (pIC50)” value in experiment [1] is 7.9. Further, in experiment [2], the EC50 is 0.12 µM.
Take `Cc1cc(C#N)ccc1-c1cnn(-c2ccc(C(=O)N3CCN(C)C4(CC4)C3)cn2)c1O` [Example 390, 4-(5-hydroxy-1-(5-(4-methyl-4,7-diazaspiro[2.5]octane-7-carbonyl)pyridin-2-yl)-1H-pyrazol-4-yl)-3-methylbenzonitrile]: in experiment [1], the “PHD Inhibition (pIC50)” value was found to be 8.29. Also, in experiment [2], the EC50 is 0.955 µM.
As to `COc1nccc(-c2cnn(-c3ccc(C(=O)NCC4CCOCC4)cn3)c2O)c1OC` [Example 255, 6-(4-(2,3-dimethoxypyridin-4-yl)-5-hydroxy-1H-pyrazol-1-yl)-N-((tetrahydro-2H-pyran-4-yl)methyl)nicotinamide], in experiment [1], the “PHD Inhibition (pIC50)” value was 7.6. In addition, the EC50 in experiment [2] is 1.45 µM.
For `COCCN(C(=O)c1ccc(-n2ncc(-c3ccc(C#N)cc3C)c2O)nc1)C1CCN(C)CC1` [Example 422, 6-(4-(4-cyano-2-methylphenyl)-5-hydroxy-1H-pyrazol-1-yl)-N-(2-methoxyethyl)-N-(1-methylpiperidin-4-yl)nicotinamide], in experiment [1], the “PHD Inhibition (pIC50)” value turned out to be 7.87. Also, the EC50 in experiment [2] is 0.501 µM.
Take `Cc1cc(C#N)ccc1-c1cnn(-c2ccc(C(=O)N3CCN(CC4CC4)CC3)cn2)c1O` [Example 418, 4-(1-(5-(4-(cyclopropylmethyl)piperazine-1-carbonyl)pyridin-2-yl)-5-hydroxy-1H-pyrazol-4-yl)-3-methylbenzonitrile]: the “PHD Inhibition (pIC50)” value in experiment [1] is given as 8.17. For the same molecule, the EC50 in experiment [2] is 1.17 µM.
The matching figures for `CC[C@H](C)NC(=O)c1ccc(-n2ncc(-c3ccnc(OC)c3)c2O)nc1` [Example 10, (S)—N-(sec-butyl)-6-(5-hydroxy-4-(2-methoxypyridin-4-yl)-1H-pyrazol-1-yl)nicotinamide]: 7.09 and 0.676 µM.
